Source: patent US20060154236A1, “Computer-assisted analysis” (priority 2004, published 2006)
Starred links: 1 amine or outer side, 2 acyl side, 3 side chain; linkers in the order of their positions; H or OH if unused. Positions of bridges follow the written chain, without caps; N, C: chain ends. Non-standard residues stand in square brackets, D forms with d. Residues, ends and D or L forms follow the SMILES beside them. Chains are numbered I, II in the order given. Actinocin(9to1) = Cc1c2oc3c(C)ccc(C(=O)[*:1])c3nc-2c(C(=O)[*:2])c(N)c1=O; NMeV = CN[C@H](C(=O)O)C(C)C; Nle = CCCC[C@H](N)C(=O)O; Sar = CNCC(=O)O

Tested on: HeLa (human cancer) cells
Experiment: Cytological dose-response profiling by automated fluorescence microscopy (KS statistic z-scores, 93 descriptors)
Type: cell-based
Details: HeLa cells, 20 hrs, thirteen 3-fold dilutions; Y = profile response above signal threshold
Protocol: The known drug set was chosen to cover common mechanisms of toxicity or therapeutic action in cancer and other diseases, and to include several groups with a common target (macromolecule or pathway) but unrelated structures. We analyzed thirteen 3-fold dilutions of each drug, covering a final concentration range on cells from micromolar to picomolar. (Table 3 and Materials & Methods). HeLa (human cancer) cells were cultured in 384-well plates to near confluence, treated with drugs for 20 hrs, fixed, and stained with fluorescent probes for various cell components and processes. We chose 11 distinct probes that covered a range of cell biology, multiplexing a DNA stain and two antibodies per well (the probe sets are: (SC35, anillin), (α-tubulin, actin), (phospho-p38, phospho-ERK), (p53, cFos), (phospho-CREB, calmodulin)). Using automated fluorescence microscopy, we collected images of up to ˜8000 cells from each well. 26 wells on each plate were treated only with DMSO to generate a control population. The experiment was performed twice in parallel to provide a replicate dataset. Image segmentation procedures were used to automatically identify nuclei and nuclear organelles, and cytoplasmic regions were approximated as an annulus surrounding each identified nucleus (FIG. 31A). For each cell, region, and probe, a set of descriptors was measured. These included measures of size, shape, and intensity, as well as ratios of intensities between regions (93 descriptors total, Table S3).
For profiling studies, it is useful to reduce each population of descriptor values to a single number. […] We devised a measure based on the Kolmogorov-Smirnov (KS) statistic, allowing nonparametric comparison of experimental and control distributions from the same plate (FIGS. 31B and 35). […] In particular, the relationship between z-score and the original physical measure may be non-linear.
Cell culture. 20 hours before compound addition, Hela cells grown in […] dishes were trypsinized, resuspended in DMEM supplemented with 10% FCS and 10 ug/mL penicillin/streptomycin, and plated in 384-well plates at an initial density of 3,000 cells per well, 40 uL per well. Compounds were purchased from Sigma (St. Louis, MO), Calbiochem (EMD Biosciences, San Diego, Calif.) and Tocris (Elliksville, MO) and are listed in Table 2. Compound stocks were prepared in DMSO and then arrayed on 384-well plates in 16 consecutive 1:3 serial dilutions in DMSO as outlined in Table 3. The highest and two lowest dilutions (rows A, 0 and P) were not used for subsequent analysis as the wells due to persistent edge effects, leaving us with a series of 13 dilutions. Each stock was diluted 16-fold in warmed culture medium, and 8 μl of this solution was added to the plated cells, resulting in a 96-fold final dilution. All conditions were performed in duplicate in separate plates. Cells were incubated at 37° C. for 20 hours, then fixed in 3% formaldehyde in PBS. All liquid handling was performed using a programmed TekBench (TekCel, Hopkinton, Mass.).
Markers. Five sets of markers were stained by standard immunofluorescence methods in this study.

Compound	Used in clustering (FIG. 33)
CC[C@H](C)C(=O)O[C@H]1CCC=C2C=C[C@H](C)[C@H](CC[C@@H]3C[C@@H](O)CC(=O)O3)[C@H]21 [Compound 37, Mevastatin]	Y
C[C@H]1CCC/C=C/[C@@H]2C[C@H](O)C[C@H]2[C@H](O)/C=C/C(=O)O1 [Compound 8, Brefeldin A]	Y
Oxamflatin [Compound 78]	Y
COc1cc2c(c(OC)c1OC)-c1ccc(OC)c(=O)cc1[C@@H](NC(C)=O)CC2 [Compound 13, Colchicine]	Y
C/C1=C\[C@H](C)C[C@H](C)OC(=O)C[C@H](c2ccc(O)cc2)NC(=O)[C@@H](Cc2c(Br)[nH]c3ccccc23)N(C)C(=O)[C@H](C)NC(=O)[C@@H](C)C1 [Compound 34, Jasplakinolide]	Y
CC(=O)O[C@H]1C(=O)[C@@]2(C)[C@H]([C@H](OC(=O)c3ccccc3)[C@]3(O)C[C@H](OC(=O)[C@H](O)[C@@H](NC(=O)c4ccccc4)c4ccccc4)C(C)=C1C3(C)C)[C@]1(OC(C)=O)CO[C@@H]1C[C@@H]2O [Compound 53, Taxol]	Y
C/C1=C/C(=O)O[C@@H]2C[C@@H](CC[C@H](C)/C=C\CC1)O[C@@](O)([C@@H]1CSC(=O)N1)C2 [Compound 36, Latrunculin B]	Y
C[C@@H]1C[C@@H]([C@H](O)CC2CC(=O)NC(=O)C2)C(=O)[C@@H](C)C1 [Compound 14, Cycloheximide]	Y
Amanitin [Compound 3]	Y
CNc1ccc2oc(C[C@H]3O[C@@]4(CC[C@H]3C)O[C@H]([C@H](C)C(=O)c3ccc[nH]3)[C@H](C)C[C@H]4C)nc2c1C(=O)O [Compound 2, A23187 free acid]	Y
CN(Cc1cnc2nc(N)nc(N)c2n1)c1ccc(C(=O)N[C@@H](CCC(=O)O)C(=O)O)cc1 [Compound 83, Methotrexate]	Y
C[C@@H]1C[C@H]2[C@@H]3CCC4=CC(=O)C=C[C@]4(C)[C@@]3(F)[C@@H](O)C[C@]2(C)[C@@]1(O)C(=O)CO [Compound 19, Dexamethasone]	Y
CCC(=O)CCCCC[C@@H]1NC(=O)[C@H]2CCCCN2C(=O)[C@H]([C@@H](C)CC)NC(=O)[C@H](Cc2cn(OC)c3ccccc23)NC1=O [Compound 76, Apicidin]	Y
Cc1cc(O)c2c(c1)C(=O)c1cc(O)cc(O)c1C2=O [Compound 22, Emodin]	Y
CCC(C)(C)C(=O)O[C@H]1C[C@@H](C)C=C2C=C[C@H](C)[C@H](CC[C@@H]3C[C@@H](O)CC(=O)O3)[C@H]21 [Compound 70, Simavastatin]	Y
COc1cccc2c1C(=O)c1c(O)c3c(c(O)c1C2=O)C[C@@](O)(C(=O)CO)C[C@@H]3O[C@H]1C[C@H](N)[C@H](O)[C@H](C)O1 [Compound 20, Doxorubicin]	Y
C[C@@]1(CO)[C@H](O)CC[C@@]2(C)[C@H]1CC[C@H]1C[C@@H]3C[C@@]12CC[C@]3(O)CO [Compound 81, Aphidicolin]	Y
COc1ccc(C[C@H](N)C(=O)N[C@H]2[C@@H](O)[C@H](n3cnc4c(N(C)C)ncnc43)O[C@@H]2CO)cc1 [Compound 45, Puromycin]	Y
CC[C@H]1/C=C/C=C/C[C@@H](C)[C@H](O)[C@@](C)(O)C(=O)[C@@H](C)[C@H](O)[C@@H](C)C(=O)[C@@H](C)[C@H](O)[C@@H](C)/C=C/C(=O)O[C@@H]2[C@H](C)[C@H](CC1)O[C@]1(CC[C@H](C)[C@H](C[C@@H](C)O)O1)[C@H]2C [Compound 90, Oligomycin]	Y

Compound	Used in clustering (FIG. 33)
COC(=O)Nc1nc2ccc(C(=O)c3cccs3)cc2[nH]1 [Compound 91, Nocodazole]	Y
C[S+]([O-])c1ccc(-c2nc(-c3ccncc3)c(-c3ccc(F)cc3)[nH]2)cc1 (centres unmarked) [Compound 80, SB203580]	Y
NS(=O)(=O)c1ccc(-n2nc(C(F)(F)F)cc2-c2ccc(Cl)cc2)cc1 [Compound 79, SC236]	Y
CC1=C(/C=C/C(C)=C/C=C/C(C)=C/C(=O)O)C(C)(C)CCC1 [Compound 48, Retinoic acid (trans)]	Y
CC(/C=C/C(=O)NO)=C\[C@@H](C)C(=O)c1ccc(N(C)C)cc1 [Compound 54, Trichostatin]	Y
CCCC[C@@H](C=O)NC(=O)[C@H](CC(C)C)NC(=O)[C@H](CC(C)C)NC(C)=O [Compound 5, N-acetyl-Leu-Leu-norleucinal] (Ac-Leu-Leu-[Nle]-aldehyde)	Y
CN1CCN(C2=Nc3cc(Cl)ccc3Nc3ccccc32)CC1 [Compound 64, Clozapine]	Y
CC[C@]1(O)C[C@@H]2CN(CCc3c([nH]c4ccccc34)[C@@](C(=O)OC)(c3cc4c(cc3OC)N(C)[C@H]3[C@@](O)(C(=O)OC)[C@H](OC(C)=O)[C@]5(CC)C=CCN6CC[C@]43[C@@H]65)C2)C1 [Compound 57, Vinblastine]	Y
Tunicamycin [Compound 55]	Y
O=C1Cc2c([nH]c3ccc([N+](=O)[O-])cc23)-c2ccccc2N1 [Compound 6, Alsterpaullone]	Y
O=C1Nc2ccccc2/C1=C1/Nc2ccccc2/C1=N\O [Compound 32, Indirubin monoxime]	Y
C=C1[C@@H](C)[C@H]2[C@H](Cc3ccccc3)NC(=O)[C@]23[C@H](OC(C)=O)/C=C/[C@@](C)(O)C(=O)[C@@H](C)C/C=C/[C@H]3[C@@H]1O [Compound 16, Cytochalasin D]	Y
CCCCCCCCCCCCCC(=O)O[C@@H]1[C@@H](C)[C@@]2(O)[C@@H](C=C(CO)C[C@]3(O)C(=O)C(C)=C[C@@H]23)[C@@H]2C(C)(C)[C@]12OC(C)=O [Compound 43, PMA]	Y
CCOC(=O)C1=C(C)NC(=S)NC1c1cccc(O)c1 (centres unmarked) [Compound 39, Monastrol]	Y
C/C(=C\c1csc(C)n1)[C@@H]1C[C@@H]2O[C@]2(C)CCC[C@H](C)[C@H](O)[C@@H](C)C(=O)C(C)(C)[C@@H](O)CC(=O)O1 [Compound 77, Epothilone B]	Y
COc1ccc(C[C@H]2NC[C@H](O)[C@H]2OC(C)=O)cc1 [Compound 7, Anisomycin]	Y
Cc1c2oc3c(C)ccc(C(=O)N[C@@H]4C(=O)N[C@H](C(C)C)C(=O)N5CCC[C@H]5C(=O)N(C)CC(=O)N(C)[C@@H](C(C)C)C(=O)O[C@@H]4C)c3nc-2c(C(=O)N[C@@H]2C(=O)N[C@H](C(C)C)C(=O)N3CCC[C@H]3C(=O)N(C)CC(=O)N(C)[C@@H](C(C)C)C(=O)O[C@@H]2C)c(N)c1=O [Compound 4, Actinomycin D] (I: T[dV]P[Sar][NMeV] / II: T[dV]P[Sar][NMeV]; ester I:1-I:C, II:1-II:C; linker I:N-II:N via Actinocin(9to1))	Y
COc1cc([C@@H]2c3cc4c(cc3[C@H](O)[C@H]3COC(=O)[C@H]23)OCO4)cc(OC)c1OC [Compound 44, Podophyllotoxin]	Y
COc1cccc(-c2cc(=O)c3ccccc3o2)c1N [Compound 63, PD98059]	Y
